Data as given in publication PMC7069095, “A cell-permeable peptide-based PROTAC against the oncoprotein CREPT proficiently inhibits pancreatic cancer” (Theranostics, 2020).
Non-standard residues stand in square brackets, D forms with d. Residues, ends and D or L forms follow the SMILES beside them. Hyp = O=C(O)[C@@H]1C[C@@H](O)CN1; Ahx = NCCCCCC(=O)O

Experiment: Circular dichroism (CD) spectroscopy
Type: physicochemical
Details: 0.1 mg/mL in deionized water, room temperature
Description: All peptides were dissolved in the deionized water at a final concentration of 0.1 mg/mL. The CD spectra were measured by using a 1 nm bandwidth with a 1 nm step resolution from 190 to 260 nm at room temperature (Jasco spectropolarimeter, Japan). Final spectra were obtained from the average of three parallel scans after subtracting a spectrum of deionized water recorded under the same conditions. Each sample was scanned thrice and the averaged spectrum was smoothed. The helicity were calculated by CDNN 2.1 [59], [60].

With CC[C@H](C)[C@H](N)C(=O)N[C@@H](Cc1ccc(O)cc1)C(=O)N1C[C@H](O)C[C@H]1C(=O)N[C@@H](C)C(=O)N[C@@H](CC(C)C)C(=O)NCCCCCC(=O)N[C@@H](CCCCN)C(=O)N[C@@H](CC(=O)O)C(=O)N[C@H](C(=O)N[C@@H](CC(C)C)C(=O)N[C@@H](CO)C(=O)N[C@@H](CCC(=O)O)C(=O)N[C@@H](CCCCN)C(=O)N[C@@H](CCC(=O)O)C(=O)N[C@@H](CCCCN)C(=O)N[C@@H](CCCCN)C(=O)N[C@@H](CC(C)C)C(=O)N[C@@H](CCC(=O)O)C(=O)N[C@@H](CCC(=O)O)C(=O)N[C@@H](Cc1ccc(O)cc1)C(=O)N[C@@H](CCCCN)C(=O)N[C@@H](CCC(N)=O)C(=O)N[C@@H](CCCCN)C(=O)N[C@@H](CC(C)C)C(=O)N[C@@H](C)C(=O)N[C@@H](CCCNC(=N)N)C(=O)N[C@H](C(=O)N[C@@H](CCCNC(=N)N)C(=O)N[C@@H](CCCNC(=N)N)C(=O)N[C@@H](CCCNC(=N)N)C(=O)N[C@@H](CCCNC(=N)N)C(=O)N[C@@H](CCCCN)C(=O)O)C(C)C)C(C)C [PRTC] (H-IY[Hyp]AL[Ahx]KDVLSEKEKKLEEYKQKLARVRRRRK-OH; N-terminus and C-terminus assumed) the “secondary structure by CD spectrum” value was “α-helix structure” and the Helicity (190 to 260 nm, average of three scans, calculated by CDNN 2.1) was 50.1%.
